Earlier results on 26 compounds are cited in PMC10323144, “Garbage in, garbage out: how reliable training data improved a virtual screening approach against SARS-CoV-2 MPro” (Frontiers in Pharmacology, 2023).

The series has as its system MPro. Conditions: compiled from peer-reviewed sources (287 compounds) ref the 18 original articles; cited from earlier work.
Turning to `CN1C(=O)C(=NNC(=O)c2ccc3c(c2)OCO3)c2ccccc21` [LASSBio-1652 (16)], the “Class (MPro activity class)” value is given as 0 (compounds with IC50 > 20 μM, percentage inhibition <80% at 20 µM or 50 μM, or percentage enzyme inhibition <50% at 10 µM were labelled as INACTIVE). For `NC(=O)[C@@H](CCC(F)(F)F)N(Cc1ccc(-c2ncon2)cc1F)S(=O)(=O)c1ccc(Cl)cc1` [Avagacestat], the “Class (MPro activity class)” value is on record as 0 (compounds with IC50 > 20 μM, percentage inhibition <80% at 20 µM or 50 μM, or percentage enzyme inhibition <50% at 10 µM were labelled as INACTIVE).

Consider `O=C1c2ccccc2NC(c2cc([N+](=O)[O-])ccc2O)N1N=Cc1cc([N+](=O)[O-])ccc1O` (centres unmarked) [QZ5], for which the “Class (MPro activity class)” value is 0 (compounds with IC50 > 20 μM, percentage inhibition <80% at 20 µM or 50 μM, or percentage enzyme inhibition <50% at 10 µM were labelled as INACTIVE).

For the compound `COC(=O)N[C@H](C(=O)N1CCC[C@H]1c1nc(-c2ccc(-c3ccc(-c4c[nH]c([C@@H]5CCCN5C(=O)[C@@H](NC(=O)OC)C(C)C)n4)cc3)cc2)c[nH]1)C(C)C` [Daclatasvir], the “Class (MPro activity class)” value is listed as 0 (compounds with IC50 > 20 μM, percentage inhibition <80% at 20 µM or 50 μM, or percentage enzyme inhibition <50% at 10 µM were labelled as INACTIVE).

As for `CC1CN(Cc2cccc(Cl)c2)CCN1C(=O)CCl` (centres unmarked) [MED-COV-4280ac29-13], the “Class (MPro activity class)” value is 1 (Compounds with IC50 < 10 µM or with a percentage of enzyme inhibition >50% at 10 µM were labelled as ACTIVE). Regarding Carmofur, the “Class (MPro activity class)” value is recorded as 1 (Compounds with IC50 < 10 µM or with a percentage of enzyme inhibition >50% at 10 µM were labelled as ACTIVE).

As to `Cc1ccc(NC(=O)Cc2cccc(Cl)c2)cn1` [EDG-MED0da5ad92-13], the “Class (MPro activity class)” value is on record as 0 (compounds with IC50 > 20 μM, percentage inhibition <80% at 20 µM or 50 μM, or percentage enzyme inhibition <50% at 10 µM were labelled as INACTIVE).

For the compound `CC(C)C[C@H](NC(=O)[C@H](CCc1ccccc1)NC(=O)CN1CCOCC1)C(=O)N[C@@H](Cc1ccccc1)C(=O)N[C@@H](CC(C)C)C(=O)[C@@]1(C)CO1` [carfilzomib], the “Class (MPro activity class)” value was 0 (compounds with IC50 > 20 μM, percentage inhibition <80% at 20 µM or 50 μM, or percentage enzyme inhibition <50% at 10 µM were labelled as INACTIVE).

As for `CC(C)(C)OC(=O)Nc1cccn(C(CC2CC2)C(=O)NC(CC2CCNC2=O)C(=O)C(=O)NC2CC2)c1=O` (centres unmarked) [compound 13b], the “Class (MPro activity class)” value is reported as 1 (Compounds with IC50 < 10 µM or with a percentage of enzyme inhibition >50% at 10 µM were labelled as ACTIVE).

For the compound `Cc1ncccc1NC(=O)Cc1cccc(Cl)c1` [EDG-MED0da5ad92-14], the “Class (MPro activity class)” value is 0 (compounds with IC50 > 20 μM, percentage inhibition <80% at 20 µM or 50 μM, or percentage enzyme inhibition <50% at 10 µM were labelled as INACTIVE). Regarding `O=C(C=Cc1ccccc1)NC(CC1CCCCC1)C(=O)NC(CC1CCNC1=O)C(=O)C(=O)NCc1ccccc1` (centres unmarked) [compound 11r], the “Class (MPro activity class)” value is recorded as 1 (Compounds with IC50 < 10 µM or with a percentage of enzyme inhibition >50% at 10 µM were labelled as ACTIVE).

For the compound `C[C@H](Cn1cnc2c(N)ncnc21)OCP(=O)(O)O` [Tenofovir], the “Class (MPro activity class)” value is given as 0 (compounds with IC50 > 20 μM, percentage inhibition <80% at 20 µM or 50 μM, or percentage enzyme inhibition <50% at 10 µM were labelled as INACTIVE). In the case of `COc1cc(C2OCC3C(c4ccc(OC5OC(CO)C(O)C(O)C5O)c(OC)c4)OCC23)ccc1O` (single isomer, unassigned; (+)) [(+)-Pinoresinol-4-O-β-D-glucopyraside], the “Class (MPro activity class)” value is recorded as 0 (compounds with IC50 > 20 μM, percentage inhibition <80% at 20 µM or 50 μM, or percentage enzyme inhibition <50% at 10 µM were labelled as INACTIVE). In the case of `CCOC(=O)/C=C/[C@H](C[C@@H]1CCNC1=O)NC(=O)[C@@H](CC(=O)[C@@H](NC(=O)c1cc(C)on1)C(C)C)Cc1ccc(F)cc1` [Rupintrivir], the “Class (MPro activity class)” value is recorded as 0 (compounds with IC50 > 20 μM, percentage inhibition <80% at 20 µM or 50 μM, or percentage enzyme inhibition <50% at 10 µM were labelled as INACTIVE). On to `O=C(Nc1ccccc1)Nc1cnc2ccc([N+](=O)[O-])cc2n1` [LASSBio-1962 (8)], for which the “Class (MPro activity class)” value is 0 (compounds with IC50 > 20 μM, percentage inhibition <80% at 20 µM or 50 μM, or percentage enzyme inhibition <50% at 10 µM were labelled as INACTIVE). With `CC(C)CCC(=O)CC1c2ccccc2C(=O)N1c1ccc2ccc(Cl)nc2n1` (centres unmarked) [PAGOCLONE], the “Class (MPro activity class)” value is 0 (compounds with IC50 > 20 μM, percentage inhibition <80% at 20 µM or 50 μM, or percentage enzyme inhibition <50% at 10 µM were labelled as INACTIVE). Take `CC(=O)N[C@@H](CC(C)C)C(=O)N[C@@H](CC(C)C)C(=O)N[C@H](C=O)CCCNC(=N)N` [Leupeptin]: the “Class (MPro activity class)” value is 0 (compounds with IC50 > 20 μM, percentage inhibition <80% at 20 µM or 50 μM, or percentage enzyme inhibition <50% at 10 µM were labelled as INACTIVE). Consider `CO[C@@H]1[C@H](OC(=O)/C=C/C=C/C=C/C=C/C(=O)O)CC[C@]2(CO2)[C@H]1[C@@]1(C)O[C@@H]1CC=C(C)C` [Fumagillin], for which the “Class (MPro activity class)” value is given as 0 (compounds with IC50 > 20 μM, percentage inhibition <80% at 20 µM or 50 μM, or percentage enzyme inhibition <50% at 10 µM were labelled as INACTIVE). Consider `CC(NC(=O)Cc1cc(F)cc(F)c1)C(=O)NC(C(=O)OC(C)(C)C)c1ccccc1` (centres unmarked) [DAPT (GSI-IX)], for which the “Class (MPro activity class)” value is reported as 0 (compounds with IC50 > 20 μM, percentage inhibition <80% at 20 µM or 50 μM, or percentage enzyme inhibition <50% at 10 µM were labelled as INACTIVE). On to `CC(C)CN(C[C@@H](O)[C@H](Cc1ccccc1)NC(=O)O[C@H]1CO[C@H]2OCC[C@H]21)S(=O)(=O)c1ccc(N)cc1` [Darunavir], for which the “Class (MPro activity class)” value is 0 (compounds with IC50 > 20 μM, percentage inhibition <80% at 20 µM or 50 μM, or percentage enzyme inhibition <50% at 10 µM were labelled as INACTIVE). As for `O=C(O)CC[C@H]1CC[C@@](c2cc(F)ccc2F)(S(=O)(=O)c2ccc(Cl)cc2)CC1` [MK-0752], the “Class (MPro activity class)” value is listed as 0 (compounds with IC50 > 20 μM, percentage inhibition <80% at 20 µM or 50 μM, or percentage enzyme inhibition <50% at 10 µM were labelled as INACTIVE). `C=CC(=O)N(c1ccc(C(C)(C)C)cc1)C(C(=O)Nc1ccc(OC)cc1OC)c1cccnc1` (centres unmarked) [LON-WEI-adc59df6-45]: the “Class (MPro activity class)” value is 1 (Compounds with IC50 < 10 µM or with a percentage of enzyme inhibition >50% at 10 µM were labelled as ACTIVE).

Regarding `O=C(CCl)N1CCN(S(=O)(=O)c2cccc(F)c2)CC1` [LON-WEI-8f408cad-4], the “Class (MPro activity class)” value is 1 (Compounds with IC50 < 10 µM or with a percentage of enzyme inhibition >50% at 10 µM were labelled as ACTIVE). On to `COc1cc(OC)nc(O[C@H](C(=O)O)C(OC)(c2ccccc2)c2ccccc2)n1`, for which the “Class (MPro activity class)” value is 0 (compounds with IC50 > 20 μM, percentage inhibition <80% at 20 µM or 50 μM, or percentage enzyme inhibition <50% at 10 µM were labelled as INACTIVE). For `COc1c(OC2OC(C(=O)O)C(O)C(O)C2O)cc2oc(-c3ccccc3)cc(=O)c2c1O` [Oroxylin A-7-O-β-D-glucuronide], the “Class (MPro activity class)” value is reported as 0 (compounds with IC50 > 20 μM, percentage inhibition <80% at 20 µM or 50 μM, or percentage enzyme inhibition <50% at 10 µM were labelled as INACTIVE). Consider `O=c1c(O)c(-c2ccc(O)cc2)oc2c(O)c(O)cc(O)c12` [Herbacetin], for which the “Class (MPro activity class)” value was 0 (compounds with IC50 > 20 μM, percentage inhibition <80% at 20 µM or 50 μM, or percentage enzyme inhibition <50% at 10 µM were labelled as INACTIVE).
